# Test results taken from patent US12606556B2, “TYK-2 inhibitor” (BEIGENE, LTD., priority 2020, dated 2026).
# Key:
# [1] = target: T1, JAK1-JH2 protein (aa 561-860, in-house) (Homo sapiens, UniProt P23458); experiment: JAK1-JH2 biochemical assay (HTRF, blocking of JAK1-JH2 protein with its probe); assay type: binding; details: 1.17 nM recombinant JAK1-JH2, Probe 2
# T1 construct: JAK1-JH2 protein (aa 561-860, in-house); made in house
# Description: Assay B: JAK1-JH2 Biochemical Assay
# Compounds disclosed herein were tested for blocking of JAK1-JH2 protein (aa 561-860, in-house) with its probe in an assay based on Homogeneous Time Resolved Fluorescence. Compound dilution is done according to the following protocol: (1) Prepare 500× compounds solution in DMSO from 500 uM by 5-fold dilution, total 10 doses were included; (2) Prepare 10× compounds solution in an assay buffer containing 20 mM HEPES, pH 7.5, 10 mM MgCl2, 0.005% BSA, 2 mM DTT, 0.015% Brij-35 by transferring 1 μl serial 500× stock solution into 49 μl assay buffer. 4 μL of 1.17 nM recombinant JAK1-JH2 protein was pre-incubated with 1 μl of 10×serial dilution of compounds at room temperature for 0.5 hour. […] The HTRF signals (ex337 nm, em620 nm/665 nm) were read on BMG PHERAstar FS instrument. The inhibition percentage of JAK1 interaction with its probe in presence of increasing concentrations of compounds was calculated based on the ratio of fluorescence at 615 nm to that at 665 nm. The IC50 for each compound was derived from fitting the data to the four-parameter logistic equation by Dotmatics.
# [2] = system: JAK2, TYK2/p-STAT4 (Tyr693) activated by IL-12 in NK-92 cell line; experiment: IL-12-JAK2, TYK2/p-STAT4 (Tyr693) inhibition cellular assay; assay type: cell-based; details: for IC50: NK92, 0.5 h, NK-92 cells, IL-12 40 ng/ml, 30 min, read-out: Cellular assay pSTAT4/IL-12 IC50; for Cellular assay Selectivity fold (TYK2/JAK1): pSTAT4/IL-12 vs pSTAT3/IL-6 cellular IC50
# Text: Assay C: IL-12-JAK2, TYK2/p-STAT4 (Tyr693) Inhibition IC50 Cellular Assay
# To evaluate the inhibition effect of compounds disclosed herein on JAK2, TYK2/p-STAT4 (Tyr693) activated by IL-12 in NK-92 cell line, NK-92 cells were collected and washed 3 times by DPBS and resuspended in MEM-α(GIBCO,Cat #12561056) with 10% FBS (Gibco, Cat #10099, Lot #1891605), without IL-2 (R&D systems,Cat #202-IL), starved overnight. Cells were collected and resuspended in 1640 medium (phenol red free, Gibco, Cat #11835-030) with 0.1% BSA, and 12.5 μl/5×10^4/well cell suspension were seeded to the 96-well plate (Corning, Cat #3799). Then cells were treated with compounds diluted in 0.2% DMSO 1640 medium, at 37° C., 1 h. Dilution is done according to the following protocol: (1) make 500× compounds solution in DMSO from 5 mM by 4-fold dilution, total 8 doses were included; (3) make 2× compounds solution in assay medium by transferring 0.5 μl serial 500× stock solution into 125 μl assay medium; (4) 15 μl of 2× serial solution is added to cells and incubate at 37° C. for 1 h, the final compound conc. is 10000,2500,625,156.25,39,9.8,2.4 and 0.61 nM, respectively. After 1 h, cells were treated with 2.5 μl medium containing IL-12 at 37° C. (R&D systems, Cat #219-IL-005, final conc.40 ng/ml), 30 min. Following cells were lysed with 7.5 μl lysis buffer at RT, shaking on shaker for 1 h. 10 μL of cell lysate were transferred to a PE 384-well Proxiplate detection plate, and 5 μL of pre-mixed Alphascreen beads were added to each well. Covered the plate with a plate sealer, span 1000 rpm for 1 min, mix, Incubated overnight at room temperature. Read on BMG PheraStar with Alphascreen protocol. IC 50 values were calculated by fitting dependent data to the four-parameter logistic model using dotmatics software. The assay was performed by using AlphaLISA SureFire Ultra p-STAT4 (Tyr693) Assay Kit—High Volume (PE, Cat #ALSU-PST4-A-HV).
# [3] = system: JAK1/p-STAT3(Tyr705) activated by IL-6 in TF-1 cell line; experiment: IL-6-JAK1/p-STAT3(Tyr705) inhibition cellular assay; assay type: cell-based; details: Homo sapiens, 0.5 h; TF-1 cells, IL-6 50 ng/ml, 30 min; read-out: Cellular assay pSTAT3/IL-6 IC50
# Text: Assay D: IL-6-JAK1/p-STAT3(Tyr705) Inhibition IC50 Cellular Assay
# To evaluate the inhibition effect of compounds disclosed herein on JAK1/p-STAT3(Tyr705) activated by IL-6 in TF-1 cell line, TF-1 cells were collected and washed 3 times by DPBS and resuspended in RPMI-1640 (phenol red free, Gibco, Cat #11835-030) with 0.1% FBS (Gibco, Cat #10099, Lot #1891605), without GM-CSF(R&D systems,Cat #215-GM-050), starved overnight. Cells were collected and resuspended in 1640 medium (phenol red free, Gibco, Cat #11835-030) with 0.1% BSA, and 12.5 μl/10×10^4/well cell suspension were seeded to the 96-well plate (Corning, Cat #3799). Then cells were treated with compounds diluted in 0.2% DMSO 1640 medium, at 37° C., 1 h. Dilution is done according to the following protocol: (1) make 500× compounds solution in DMSO from 5 mM by 4-fold dilution, total 8 doses were included; (3) make 2× compounds solution in assay medium by transferring 0.5 μl serial 500× stock solution into 125 μl assay medium; (4) 15 μl of 2× solution is added to cells and incubate at 37° C. for 1 h, the final compound conc. is 10000,2500,625,156.25,39,9.8,2.4 and 0.61 nM, respectively. After 1 h, cells were treated with 2.5 μl medium containing IL-6 at 37° C. (R&D systems, Cat #206-IL-010, final conc.50 ng/ml), 30 min. Following cells were lysed with 10 μl lysis buffer at RT, shaking on shaker for 1 h. 16 μL of cell lysate were transferred to a PE 384-well HTRF detection plate, and 4 μL of pre-mixed HTRF antibodies were added to each well. Covered the plate with a plate sealer, span 1000 rpm for 1 min, mix, Incubated overnight at room temperature. Read on BMG PheraStar with HTRF protocol (337 nm-665 nm-620 nm). IC 50 values were calculated by fitting dependent data to the four-parameter logistic model using dotmatics software. The assay was performed by using HTRF Phospho-STAT3(Tyr705) Cellular Assay Kit (Cisbio, Cat #62AT3PEG).
# [4] = target: T2, TYK2-JH2 (aa 575-869, in-house) protein (Homo sapiens, UniProt P29597); experiment: TYK2-JH2 biochemical assay (HTRF, blocking of TYK2-JH2 protein with its probe); assay type: binding; details: for IC50: HTRF, 0.2 nM recombinant TYK2-JH2, Probe 1; for Biochemical assay Selectivity fold (TYK2/JAK1): TYK2-JH2 vs JAK1-JH2 biochemical IC50
# T2 construct: TYK2-JH2 (aa 575-869, in-house) protein; made in house
# T2 sequence (P29597 575-869): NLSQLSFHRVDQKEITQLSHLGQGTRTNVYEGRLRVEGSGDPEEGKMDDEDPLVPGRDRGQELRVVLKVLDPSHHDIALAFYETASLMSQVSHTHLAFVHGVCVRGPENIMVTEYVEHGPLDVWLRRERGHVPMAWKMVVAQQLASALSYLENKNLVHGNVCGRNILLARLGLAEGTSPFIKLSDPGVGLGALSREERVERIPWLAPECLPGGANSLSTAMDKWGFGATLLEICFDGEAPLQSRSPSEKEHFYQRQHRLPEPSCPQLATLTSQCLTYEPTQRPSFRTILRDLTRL
# Description: Assay A: TYK2-JH2 Biochemical Assay
# Compounds disclosed herein were tested for blocking of TYK2-JH2 (aa 575-869, in-house) protein with its probe in an assay based on Homogeneous Time Resolved Fluorescence.
# Compound dilution is done according to the following protocol: (1) Prepare 500× compounds solution in DMSO from 500 uM by 5-fold dilution, total 10 doses were included; (2) Prepare 10× compounds solution in an assay buffer containing 20 mM HEPES, pH 7.5, 10 mM MgCl2, 0.005% BSA, 2 mM DTT, 0.015% Brij-35 by transferring 1 μl serial 500× stock solution into 49 μl assay buffer. 4 μl of 0.2 nM recombinant TYK2-JH2 protein was pre-incubated with 1 μl of 10×serial dilution of compounds at room temperature for 0.5 hour. Then 5 μl of 10 nM in-house Probe 1 (6-((3,5-dimethylphenyl)amino)-8-((4,26-dioxo-30-((3aS,4S,6aR)-2-oxohexahydro-1H-thieno[3,4-d]imidazol-4-yl)-7,10,13,16,19,22-hexaoxa-3,25-diazatriacontyl)amino)imidazo[1,2-b]pyridazine-3-carboxamide, KD=10 nM), 5 μl Mab Anti-6His Tb cryptate Gold (Cat: 61HI2TLB, Cisbio Bioassays) and Streptavidin-XL665(Cat: 610SAXLB, Cisobio Bioassays) mixture were added to plate and further incubated at room temperature for 1 hour. The HTRF signals (ex337 nm, em620 nm/665 nm) were read on BMG PHERAstar FS instrument. The inhibition percentage of TYK2 interaction with its probe in presence of increasing concentrations of compounds was calculated based on the ratio of fluorescence at […]. The IC50 for each compound was derived from fitting the data to the four-parameter logistic equation by Dotmatics.
# T1 sequence (P23458 561-860): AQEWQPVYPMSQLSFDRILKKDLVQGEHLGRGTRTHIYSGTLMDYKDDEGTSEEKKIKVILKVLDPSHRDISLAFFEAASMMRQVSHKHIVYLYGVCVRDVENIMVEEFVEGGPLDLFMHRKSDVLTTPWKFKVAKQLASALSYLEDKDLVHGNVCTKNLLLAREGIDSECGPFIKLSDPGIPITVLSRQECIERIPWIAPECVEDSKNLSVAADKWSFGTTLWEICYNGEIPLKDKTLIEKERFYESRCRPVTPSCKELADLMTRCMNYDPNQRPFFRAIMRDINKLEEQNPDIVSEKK
IC50 [1],IC50 [2],IC50 [3],IC50 [4],Biochemical assay Selectivity fold (TYK2/JAK1) [4],SMILES,Cellular assay Selectivity fold (TYK2/JAK1) [2]
1.7 nM,6.31 nM,9930 nM,0.024 nM,71 fold,"CNC(=O)c1nnc(NC(=O)C2CC2)cc1Nc1nc2ccc(N3CCC(N4CC(F)(F)C4)CC3)cn2n1 [Example E12, 6-(cyclopropanecar-boxamido)-4-((6-(4-(3,3-difluoroazetidin-1-yl)piperidin-1-yl)-[1,2,4]triazolo[1,5-a]pyridin-2-yl)amino)-N-methylpyridazine-3-carboxamide]",1478 fold
2.18 nM,157 nM,> 10000 nM,0.16 nM,14 fold,"CNC(=O)c1nnc(NC(=O)C2CC2)cc1Nc1nc2ccc(N3CC(C(=O)N4CCSC4)C3)cn2n1 [Example Q1, 6-(cyclopropanecarboxamido)-N-methyl-4-((6-(3-(thiazolidine-3-carbonyl)azetidin-1-yl)-[1,2,4]triazolo[1,5-a]pyridin-2-yl)amino)pyridazine-3-carboxamide]",>64 fold
2.4 nM,19.6 nM,> 10000 nM,0.097 nM,25 fold,"CNC(=O)c1nnc(NC(=O)C2CC2)cc1Nc1nc2ccc(N3CC(F)C3)cn2n1 [Example E9, 6-(cyclopropanecar-boxamido)-4-((6-(3-fluoroazetidin-1-yl)-[1,2,4]triazolo[1,5-a]pyridin-2-yl)amino)-N-methylpyridazine-3-carboxamide]",>510 fold
174 nM,,,34 nM,5 fold,"CNC(=O)c1nnc(NC(=O)C2CC2)cc1Nc1nc2ccccc2n1C [Example A2, 6-(cyclopropanecarboxamido)-N-methyl-4-((1-methyl-1H-benzo[d]imidazol-2-yl)amino) pyridazine-3-carboxamide]",
3.7 nM,,,1.4 nM,2.6 fold,"CNC(=O)c1nnc(NC(=O)C2CC2)cc1Nc1nc2ccccc2[nH]1 [Example A3, 4-((1H-benzo [d]imidazol-2-yl)amino)-6-(cyclopropane-carboxamido)-N-methyl-pyridazine-3-carboxamide]",
1.2 nM,,,0.14 nM,9 fold,"CNC(=O)c1nnc(NC(=O)C2CC2)cc1Nc1nc2ccc(OC3CNC3)cn2n1 [Example C2, 4-((6-(azetidin-3-yloxy)-[1,2,4]triazolo[1,5-a]pyridin-2-yl)amino)-6-(cyclopropanecarboxamido)-N-methylpyridazine-3-carboxamide]",
1.3 nM,,,0.1 nM,13 fold,"CNC(=O)c1nnc(NC(=O)C2CC2)cc1Nc1nc2ccc(OC3CN(C(=O)OC(C)(C)C)C3)cn2n1 [Example C1, tert-butyl 3-((2-((6-(cyclopropanecarboxamido)-3-(methylcarbamoyl)pyridazin-4-yl)amino)-[1,2,4]triazolo[1,5-a]pyridin-6-yl)oxy)azetidine-1-carboxylate]",
> 10000 nM,,,456 nM,>22 fold,"CNC(=O)c1nnc(NC(=O)C2CC2)cc1Nc1nc2ccccc2o1 [Example A1, 4-(benzo[d]oxazol-2-ylamino)-6-(cyclopropanecarboxamido)-N-methylpyridazine-3-carboxamide]",
5.8 nM,,,0.18 nM,32 fold,"CNC(=O)c1nnc(NC(=O)C2CC2)cc1Nc1nc2ccc(N3CCC(N4CCC4)CC3)cn2n1 [Example E11, 4-((6-(4-(azetidin-1-yl)piperidin-1-yl)-[1,2,4]triazolo[1,5-a]pyridin-2-yl)amino)-6-(cyclopropanecarbox-amido)-N-methyl-pyridazine-3-carboxamide]",
